Measured values from patent US6660309B2, “Antitumor agent” (Biozak, Inc., priority 2001, dated 2003).

Assays:
βTC-6 cells = assay: Tolbutamide-induced insulin secretion in βTC-6 cells (FIG. 2); assay type: cell-based
Experimental: FIG. 2 is a graph showing the effect of Composition A on tolbutamide-induced insulin secretion in βTC-6 cells.
(§1) In order to avoid interference from the natural insulin secretagogue glucose, the effect of Composition A on insulin secretion was studied under glucose-free conditions. The sulfonylurea compound, tolbutamide was used as the insulin secretagogue in the studies of the effect of Composition A on stimulated insulin secretion.
(§2) Insulin assays were performed using the rat insulin assay kit purchased from Crystal Chemists, Inc. (Chicago, Ill., USA). This kit uses a in an Enzyme Linked Immunosorbent Assay (non-competitive sandwich method). The assay was performed according to the manufacturer's protocol. Briefly, the standard or sample (5 μl) diluted with a sample diluent was added to the wells of a multi-well polystyrene plate. The wells were precoated with antiinsulin antibody. After 2 hours of incubation, the wells were thoroughly washed with a washing buffer. A peroxidase-conjugated antiinsulin antibody solution was then added to the well. […] The color was read in an microplate reader using a 405 filter. […]
(§3) The effect of Composition A on tolbutamide-induced insulin secretion in HIT-T15 and βTC-6 cells is shown in […]. […] Samples were measured 1 hour later. […]

HIT-T15 cells = assay: Tolbutamide-induced insulin secretion in HIT-T15 cells (FIG. 3); assay type: cell-based; conditions: FIG. 3, tolbutamide alone, 1 hour; without tolbutamide about 0.17
Experimental: FIG. 3 is a graph showing the effect of Composition A on tolbutamide-induced insulin secretion in HIT-T15 cells.
as §1, §2, §3

CCCCNC(=O)NS(=O)(=O)c1ccc(C)cc1 [tolbutamide]
Insulin production with tolbutamide alone (βTC-6 cells; FIG. 2, tolbutamide 10 μg/ml alone, 1 hour, without tolbutamide 0.9): 1.2 ng/ml/mg protein | More insulin secreted by tolbutamide-treated cells than by untreated cells (βTC-6 cells; βTC-6, 1-hour period following glucose deprivation and replacement of the medium): approximately 30% | Insulin secretion with tolbutamide alone (HIT-T15 cells): about 0.3 ng/ml/mg protein
